# Results from patent publication US20260293898A1 (priority 2023, published 2026).
# Columns and labels:
# Phytophthora infestans = assay type: in vivo; details: 200 ppm; tomato leaf disks, preventative, inoculated 1 day after application; 5-7 days after application; compared to untreated control
# Pythium ultimum = Pythium ultimum / liquid culture (seedling damping off); assay type: cell-based; details: Globisporangium ultimum, read-out: control of Pythium ultimum
# Plasmopara viticola = Plasmopara viticola / grape / leaf disc preventative; assay type: in vivo; details: 200 ppm, grape vine leaf disks, inoculated 1 day after application, 6-8 days after application, compared to untreated control
Structure (SMILES),control of Phytophthora infestans (Phytophthora infestans),inhibition of growth at 20 ppm (Pythium ultimum) [%],control of Plasmopara viticola (Plasmopara viticola)
"COC(=O)Nc1ccc(-c2cnc3c(C)cc(C(=O)N(C)c4ccc(C#N)c(OC)c4)cn23)cn1 [X.23, methyl N-[5-[6-[(4-cyano-3-methoxy-phenyl)-methyl-carbamoyl]-8-methyl-imidazo[1,2-a]pyridin-3-yl]-2-pyridyl]carbamate]",at least 80%,≥ 80,at least 80%
"COC(=O)Nc1ccc(-c2cnc3c(NC(C)=O)cc(C(=O)N(C)c4ccc(F)c(OC)c4)cn23)cn1 [X.20, methyl N-[5-[8-acetamido-6-[(4-fluoro-3-methoxy-phenyl)-methyl-carbamoyl]imidazo[1,2-a]pyridin-3-yl]-2-pyridyl]carbamate]",–,≥ 80,at least 80%
"COCN(C(=O)c1cc(C)c2ncc(-c3ccc(NC(=O)OC)nc3)n2c1)c1ccc(F)c(OC)c1 [X.03, methyl N-[5-[6-[(4-fluoro-3-methoxy-phenyl)-(methoxymethyl)carbamoyl]-8-methyl-imidazo[1,2-a]pyridin-3-yl]-2-pyridyl]carbamate]",–,≥ 80,at least 80%
"COC(=O)Nc1ccc(-c2cnc3ccc(C(=O)N(CC#N)c4ccc(F)c(OC)c4)cn23)cn1 [X.14, methyl N-[5-[6-[cyanomethyl-(4-fluoro-3-methoxy-phenyl)carbamoyl]imidazo[1,2-a]pyridin-3-yl]-2-pyridyl]carbamate]",–,≥ 80,at least 80%
"COc1cc(N(C)C(=O)c2ccc3ncc(-c4ccc(NC(=O)C5CC5)nc4)n3c2)ccc1F [X.06, 3-[6-(cyclopropanecarbonylamino)-3-pyridyl]-N-(4-fluoro-3-methoxy-phenyl)-N-methyl-imidazo[1,2-a]pyridine-6-carboxamide]",at least 80%,≥ 80,at least 80%
"COC(=O)Nc1ccc(-c2cnc3ccc(C(=O)N(C)c4ccc(F)c(C)c4)cn23)cn1 [X.09, methyl N-[5-[6-[(4-fluoro-3-methyl-phenyl)-methyl-carbamoyl]imidazo[1,2-a]pyridin-3-yl]-2-pyridyl]carbamate]",–,≥ 80,at least 80%
"COC(=O)Nc1ccc(-c2cnc3c(C)cc(C(=O)N(C)c4ccc(F)c(OC)c4)cn23)cn1 [X.02, methyl N-[5-[6-[(4-fluoro-3-methoxy-phenyl)-methyl-carbamoyl]-8-methyl-imidazo[1,2-a]pyridin-3-yl]-2-pyridyl]carbamate]",–,≥ 80,at least 80%
"CCN(C(=O)c1ccc2ncc(-c3ccc(NC(=O)OC)nc3)n2c1)c1ccc(F)cc1 [X.19, methyl N-[5-[6-[ethyl-(4-fluorophenyl)carbamoyl]imidazo[1,2-a]pyridin-3-yl]-2-pyridyl]carbamate]",–,≥ 80,at least 80%
"COC(=O)Nc1ccc(-c2cnc3ccc(C(=O)N(CC#N)c4ccc(Cl)c(OC)c4)cn23)cn1 [X.15, methyl N-[5-[6-[(4-chloro-3-methoxy-phenyl)-(cyanomethyl)carbamoyl]imidazo[1,2-a]pyridin-3-yl]-2-pyridyl]carbamate]",–,≥ 80,at least 80%
"COC(=O)Nc1ccc(-c2cnc3ccc(C(=O)N(C)c4ccc(F)cc4)cn23)cc1 [X.07, methyl N-[4-[6-[(4-fluorophenyl)-methyl-carbamoyl]imidazo[1,2-a]pyridin-3-yl]phenyl]carbamate]",–,≥ 80,at least 80%
"COC(=O)Nc1ccc(-c2cnc3ccc(C(=O)N(C)c4ccc(F)c(OC)c4)cn23)cn1 [X.01, methyl N-[5-[6-[(4-fluoro-3-methoxy-phenyl)-methyl-carbamoyl]imidazo[1,2-a]pyridin-3-yl]-2-pyridyl]carbamate]",–,≥ 80,at least 80%
"COC(=O)Nc1ccc(-c2cnc3ccc(C(=O)N(C)c4ccc(F)c(OC)c4)cn23)cc1 [X.05, methyl N-[4-[6-[(4-fluoro-3-methoxy-phenyl)-methyl-carbamoyl]imidazo[1,2-a]pyridin-3-yl]phenyl]carbamate]",–,≥ 80,at least 80%
"COC(=O)Nc1ccc(-c2cnc3ccc(C(=O)N(C)c4ccc(C#N)c(OC)c4)cn23)cn1 [X.10, methyl N-[5-[6-[(4-cyano-3-methoxy-phenyl)-methyl-carbamoyl]imidazo[1,2-a]pyridin-3-yl]-2-pyridyl]carbamate]",–,≥ 80,at least 80%
"COC(=O)Nc1ccc(-c2cnc3c(C)cc(C(=O)N(C)c4ccc(F)cc4)cn23)cn1 [X.12, methyl N-[5-[6-[(4-fluorophenyl)-methyl-carbamoyl]-8-methyl-imidazo[1,2-a]pyridin-3-yl]-2-pyridyl]carbamate]",–,≥ 80,at least 80%
"COC(=O)Nc1ccc(-c2cnc3c(C)cc(C(=O)N(C)c4ccc(Cl)cc4)cn23)cc1 [X.08, methyl N-[4-[6-[(4-chlorophenyl)-methyl-carbamoyl]-8-methyl-imidazo[1,2-a]pyridin-3-yl]phenyl]carbamate]",–,≥ 80,at least 80%
CONC(=O)Nc1ccc(-c2cnc3ccc(C(=O)N(C)c4ccc(F)c(OC)c4)cn23)cn1 [X.17],–,≥ 80,–
"COC(=O)Nc1ccc(-c2cnc3c(NC(C)=O)cc(C(=O)N(C)c4ccc(F)cc4)cn23)cn1 [X.18, methyl N-[5-[8-acetamido-6-[(4-fluorophenyl)-methyl-carbamoyl]imidazo[1,2-a]pyridin-3-yl]-2-pyridyl]carbamate]",–,≥ 80,at least 80%
"COCN(C(=O)c1ccc2ncc(-c3ccc(NC(=O)OC)nc3)n2c1)c1ccc(F)c(OC)c1 [X.04, methyl N-[5-[6-[(4-fluoro-3-methoxy-phenyl)-(methoxymethyl)carbamoyl]imidazo[1,2-a]pyridin-3-yl]-2-pyridyl]carbamate]",–,≥ 80,at least 80%
"COCc1cc(C(=O)N(C)c2ccc(F)c(OC)c2)cn2c(-c3ccc(NC(=O)OC)nc3)cnc12 [X.21, methyl N-[5-[6-[(4-fluoro-3-methoxy-phenyl)-methyl-carbamoyl]-8-(methoxymethyl)imidazo[1,2-a]pyridin-3-yl]-2-pyridyl]carbamate]",at least 80%,≥ 80,at least 80%
"COC(=O)Nc1ccc(-c2cnc3c(C)cc(C(=O)N(C)c4ccnc(OC)c4)cn23)cn1 [X.22, methyl N-[5-[6-[(2-methoxy-4-pyridyl)-methyl-carbamoyl]-8-methyl-imidazo[1,2-a]pyridin-3-yl]-2-pyridyl]carbamate]",at least 80%,≥ 80,at least 80%
"COC(=O)Nc1ccc(-c2cnc3ccc(C(=O)N(CS(C)(=O)=O)c4ccc(F)c(OC)c4)cn23)cn1 [X.16, methyl N-[5-[6-[(4-fluoro-3-methoxy-phenyl)-(methylsulfonylmethyl)carbamoyl]imidazo[1,2-a]pyridin-3-yl]-2-pyridyl]carbamate]",–,≥ 80,–
"COC(=O)Nc1ccc(-c2cnc3ccc(C(=O)N(C)c4ccc(Cl)c(OC)c4)cn23)cn1 [X.11, methyl N-[5-[6-[(4-chloro-3-methoxy-phenyl)-methyl-carbamoyl]imidazo[1,2-a]pyridin-3-yl]-2-pyridyl]carbamate]",–,≥ 80,at least 80%
"COC(=O)Nc1ccc(-c2cnc3cc(C)c(C(=O)N(C)c4ccc(F)cc4)cn23)cn1 [X.13, methyl N-[5-[6-[(4-fluorophenyl)-methyl-carbamoyl]-7-methyl-imidazo[1,2-a]pyridin-3-yl]-2-pyridyl]carbamate]",–,≥ 80,at least 80%
